According to US8933117B2, “Crystals of substituted cycloalkene derivatives” (Daiichi Sankyo Company, Limited, priority 2010, dated 2015):
Entries after “also recorded” stand apart in the source; their conditions may differ. Read-outs that look alike come from different tables or passages of the source.

Legend:
[1] = Moisture absorption test (hygroscopicity); assay type: physicochemical; conditions: 25° C.; for Hygroscopicity (in words): measurement humidity 10 to 95% RH; for Hygroscopicity, change in weight: relative humidity 10→80%
Protocol: A sample was weighed in a glass sample cup, and the weight thereof was measured under the following conditions.
Measuring device: DVS Advantage, manufactured by Surface Measurement System Ltd.
Measurement temperature: 25° C., Minimum exposure time: 15 min, Maximum exposure time: 120 min, Step transition condition: within 0.006 wt. %
The appearance of the sample at the time of completion of the measurement was confirmed.

[2] = pH 7
Protocol: (§1) The above flasks as such and the flasks covered with aluminum foil for light shielding as controls were placed in a light tester at 25° C. After one day, each solution was diluted to 10 mL with 50% MeCN. The concentration of each solution was calculated by performing HPLC under the same conditions as used in the above-described solubility test, and the change in concentration from the control was calculated.

Solubility test = assay type: physicochemical; conditions: aqueous phosphate solution with 150 mM NaCl, pH around 7.5
Protocol: 150 mg of each of the compounds of Examples 1 and 2 and Comparative Example 1 was dissolved in 5 mL of an aqueous phosphate solution containing sodium chloride (containing 150 mM NaCl and 10 mM […]). After the resulting mixture was stirred for 30 minutes while measuring the pH of the mixture, a 0.5 mL portion of the resulting suspension was taken and filtered through a syringe filter. A 100 μL portion of the obtained filtrate was transferred into a 10-mL volumetric flask and diluted to 10 mL with an aqueous solution of 50% MeCN, whereby a sample solution was prepared. To the suspension, concentrated HCl was added dropwise to adjust the pH thereof to around 7.5.
Measurement was performed using HPLC under the following conditions.
HPLC system: Water's Alliance
Column: XTerra MS C18 3.5 μm, Column Size: 4.6×100 mm
Column Temp: 40° C., Flow Rate: 1.2 mL/min
Solvent A: 0.1% phosphoric acid in water, Solvent B: 0.1% phosphoric acid in MeCN

blood TNF-α level = test: Suppressive effect on elevation of blood TNF-α level (in vivo); parameters: species or system Sprague Dawley rats; conditions: test compound 0.3 mg/kg, femoral vein, 0.5 hours before LPS; rat plasma 2 hours after LPS
Protocol: The suppressive effect of the compound of the present invention on the elevation of blood TNF-α level was studied. A test for the elevation of blood TNF-α level was performed in accordance with the method of Parant et al. described in Journal of Leukocyte Biology, Vol. 47, page 164 (1990).
In the test, 3 to 4 male Sprague Dawley rats (8 to 9 weeks of age) were used for each group.
At 4 hours before the administration of LPS, muramyl dipeptide dissolved in physiological saline (1 mg/mL) was administered to each rat through the tail vein at a dose of 1 mL/kg. At 0.5 hours before the administration of LPS, the rats were anaesthetized with pentobarbital (40 mg/kg), and the compound of the present invention dissolved in a 5% dimethyl acetamide/95% polyethylene glycol 400 solution was administered to each rat through the right femoral vein at a dose of 1 mL/kg. To the control group, a 5% dimethyl acetamide/95% polyethylene glycol 400 solution was administered at a dose of 1 mL/kg. […] The plasma TNF-α level was determined using a TNF-α quantitative determination kit (BioSource International, Inc.). From the blood TNF-α level in the control group (X) and the blood TNF-α level in the group administered with the compound of the present invention (Y), the rate of suppression of TNF-α production was calculated according to the following calculation formula [II]. […]

Solution stability test = conditions: light tester, versus light-shielded control
Protocol: as §1

[3] = system: TNF-α production in human monocytic cell line U937 stimulated with endotoxin; test: Suppressive effect on production of TNF-α in cells stimulated with endotoxin (in vitro); assay type: cell-based; conditions: concentration of test compound: 100 nM, LPS 30 ng/ml, 4.5 hours
Protocol: The rate of suppression of TNF-α production when human monocytic cell line U937 was stimulated with endotoxin was determined for the compound of the present invention. Specifically, to RPMI-1640 medium containing 10% (volume %) of inactivated newborn bovine serum, 12-O-tetradecanoylphorbol-13-acetate was added to give a final concentration of 30 ng/ml. U937 cells were suspended in the medium and plated into a 96-well culture plate (Sumilon) so that the number of cells per well/volume was 2×10^4/0.1 mL, and the culture plate was then incubated for 3 days at 37° C. in a carbon dioxide incubator with 5% CO2 and 100% humidity. After completion of the incubation, the culture supernatant was removed. […] By using a 384-well half area black plate (Greiner) and an HTRF quantitative determination kit manufactured by Cisbio International, the concentration of TNF-α in the culture supernatant was measured as time-resolved fluorescence by Discovery (Packard). From the measured value in the absence of LPS (X), the measured value in the absence of the compound of the present invention (Y), and the measured value in the presence of the compound of the present invention (Z), the rate of suppression of TNF-α production was obtained according to the following calculation formula [I]. […]

## CCOC(=O)C1=CC2(CC[C@H]1S(=O)(=O)[N-]c1ccc(F)cc1Br)O[C@H](CO)[C@@H](CO)O2.[K+] [Example 2, Potassium(2-bromo-4-fluorophenyl){[(2R,3R,8R)-7-(ethoxycarbonyl)-2,3-bis(hydroxymethyl)-1,4-dioxaspiro[4.5]deca-6-en-8-yl]sulfonyl}azanide]
[1]
  Hygroscopicity (in words): did not show hygroscopicity
  Hygroscopicity, change in weight: <0.1% (relative
[2]
  Solution stability (25° C., 1 day): 99.4%
Solubility test
  Solubility (PBS pH 7.5): 9.6 mg/ml
Blood TNF-α level
  Rate of suppression of TNF-α production: 81%

## CCOC(=O)C1=CC2(CC[C@H]1S(=O)(=O)Nc1ccc(F)cc1Cl)O[C@H](CO)[C@@H](CO)O2 (single isomer, unassigned) [Comparative Example, reference compound]
Solution stability test; McIlvaine buffer pH 8
  Solution stability (25° C., 1 day): 99.4%
[1]
  Hygroscopicity (in words): showed high hygroscopicity at every measurement humidity; also recorded: With hygroscopicity
  Hygroscopicity, change in weight: 2.6% (relative
Solubility test
  Solubility (PBS pH 7.5): low solubility

## CCOC(=O)C1=CC2(CC[C@H]1S(=O)(=O)[N-]c1ccc(F)cc1Cl)O[C@H](CO)[C@@H](CO)O2.[K+] [Example 1, Potassium(2-chloro-4-fluorophenyl){[(2R,3R,8R)-7-(ethoxycarbonyl)-2,3-bis(hydroxymethyl)-1,4-dioxaspiro[4.5]deca-6-en-8-yl]sulfonyl}azanide]
Solution stability test; PBS pH 6
  Solution stability (25° C., 1 day): 99.9%
[1]
  Hygroscopicity (in words): did not show hygroscopicity
  Hygroscopicity, change in weight: <0.1% (relative
Solubility test
  Solubility (PBS pH 7.5): 13.8 mg/ml
[3]
  Rate of suppression of TNF-α production: 89%
Blood TNF-α level
  Rate of suppression of TNF-α production: 96%
